Test results taken from US20080214504A1, “Vitamin B6 Related Compounds and Methods for Recovery From Trauma” (MEDICURE INTERNATIONAL INC., priority 2004, published 2008).

System: patients scheduled for elective percutaneous coronary intervention (PCI) with high-risk features for periprocedural myocardial infarction
Experiment: Randomized placebo-controlled study of P5P in patients undergoing elective PCI: recovery, length of hospitalization, time to discharge
Assay type: in vivo, human
Description: Selection of Study Population—The patients selected for this trial were patients scheduled for elective percutaneous coronary intervention (PCI) with high-risk features for periprocedural myocardial infarction, and who satisfied specific inclusion criteria as described in the next section. Patients to be included in this study were of either sex, >18 years of age and admitted to hospital for elective, single-vessel, non-urgent PCI. Patients must have presented with at least one of the following high-risk clinical criteria: • ACS with last chest pain episode (or ischemic equivalent) within 48 hours, • recent myocardial infarction (≦7 days) with return of cardiac markers, (CK, CK-MB, and troponin) to below upper normal limits, • angiographic evidence of reduced epicardial flow (TIMI<3), • angiographic evidence of thrombus, • left ventricular ejection fraction≦30%, or • saphenous vein graft lesion.
The following patients were not eligible for inclusion into the study: • Those having suffered a recent myocardial infarction with elevated cardiac markers (CK-MB, troponin T), that have not returned to below upper limits or normal; • Those with electrocardiographic evidence of left bundle branch block (LBBB), ventricular paced rhythm, or atrial fibrillation; • Those with a planned multivessel PCI or PCI of known total occlusion (TIMI grade 0); • Those with evidence of ongoing or active clinical instability including; sustained systolic blood pressure<90 mmHg, cardiogenic shock, acute pulmonary edema or severe congestive heart failure, suspected acute myocarditis, pericarditis, endocarditis, cardiac tamponade, suspected dissecting aortic aneurysm, hemodynamically significant valvular heart disease, hypertrophic cardiomyopathy, restrictive cardiomyopathy, or congenital heart disease; • Any contraindication to the PCI procedure or any of the standard concomitant therapies used during routine PCI (e.g. aspirin, clopidogrel, heparin, low molecular weight heparin, direct antithrombin inhibitors, platelet glycoprotein IIb/IIIa antagonists); • Patients who were currently enrolled in a clinical trial of an investigational drug or who have participated in a clinical trial for an investigational drug (a new chemical entity not registered for clinical use) within 30 days preceding entry into the study or who are due to enter such a trial during the study period; • Patients with clinically significant abnormal laboratory findings (within 2 weeks prior to PCI) including: ALT, AST, bilirubin, or Alk Phos>1.5×ULN, Serum creatinine>1.8 mg/dL or 159 μmol/L; • Patients with any other pathology such as cancer, mental illness etc., which in the opinion of the investigator, might put the patient at risk or confound the results of the trial; • Female patients who are pregnant, breast feeding or planning a pregnancy during the course of the study; and • Patients who are unable or unwilling to comply with the protocol or who are not expected to complete the study period.
Treatments Administered—Following baseline laboratory assessments, patients were randomized to placebo or P5P (a vitamin B6 related compound), administered as a 10 mg/kg oral dose, at least (4) hours prior to PCI, followed by 10 mg/kg orally divided in two daily doses for fourteen (14) days. If PCI was delayed for more than 12 hours after initial dosing, they continued with scheduled BID dosing. If the initial loading dose was administered prior to or at 12:00 PM on day 1 of randomization, then the patient received a second evening dose. If the initial loading dose was administered following 12:00 PM, then no further dosing was administered on day 1, and the patient was to begin the next dose in the morning of day 2. If a dose was missed for more than 24 hours, patients were to continue to take the study drug as scheduled without taking supplemental doses. The date, time and dosing of the first and last study drug dosing was recorded in the CRF. […]

[1] = P5P 10 mg/kg oral, N = 37 (3 missing)

Cc1ncc(COP(=O)(O)O)c(C=O)c1O [P5P, pyridoxal-5′-phosphate]
Time in hospital relative to placebo (3.3 days versus 7.0 days for placebo): half as long | Length of hospitalization, Median (25th, 75th) (P5P 10 mg/kg oral at least 4 h prior to PCI, then 10 mg/kg/day for 14 days, N = 40): 1.0 (1.0, 3.0) days | Length of hospitalization, Mean (S.D.) (P5P 10 mg/kg oral at least 4 h prior to PCI, then 10 mg/kg/day in two daily doses for 14 days, N = 40): 3.3 (5.5) days | Time to discharge from initiation of PCI, Maximum (P5P 10 mg/kg oral, N = 37): 34.0 days | Time to discharge from initiation of PCI, Minimum (P5P 10 mg/kg oral, N = 37): 1.0 days | Time to discharge from initiation of PCI, Mean (S.D) [1]: 1.9 (5.4) days | Time to discharge from initiation of PCI, Medium (25th, 75th) [1]: 1.0 (1.0, 1.0) days | Length of hospitalization, Maximum (P5P 10 mg/kg oral, N = 40): 34.0 days | Length of hospitalization, Minimum (P5P 10 mg/kg oral, N = 40): 0.0 days | Number of days from initiation of PCI to discharge from hospital, shorter versus placebo (P5P versus placebo): 74% | Time in hospital (placebo 7.0 days): 3.3 days
